We go through 28 compounds from ChEMBL document CHEMBL4840354, “Identification of Diarylurea Inhibitors of the Cardiac-Specific Kinase TNNI3K by Designing Selectivity Against VEGFR2, p38α, and B-Raf” (J Med Chem, 2021).

A value given as a limit tells only on which side of the number the result lay.

In test [1] the target is Serine/threonine-protein kinase B-raf (Homo sapiens, UniProt P15056). As to the kind of experiment: Inhibition of B-Raf (unknown origin).
For test [2], the target named is T1, Serine/threonine-protein kinase TNNI3K (Homo sapiens, UniProt Q59H18).
T1 sequence (Q59H18 whole entry): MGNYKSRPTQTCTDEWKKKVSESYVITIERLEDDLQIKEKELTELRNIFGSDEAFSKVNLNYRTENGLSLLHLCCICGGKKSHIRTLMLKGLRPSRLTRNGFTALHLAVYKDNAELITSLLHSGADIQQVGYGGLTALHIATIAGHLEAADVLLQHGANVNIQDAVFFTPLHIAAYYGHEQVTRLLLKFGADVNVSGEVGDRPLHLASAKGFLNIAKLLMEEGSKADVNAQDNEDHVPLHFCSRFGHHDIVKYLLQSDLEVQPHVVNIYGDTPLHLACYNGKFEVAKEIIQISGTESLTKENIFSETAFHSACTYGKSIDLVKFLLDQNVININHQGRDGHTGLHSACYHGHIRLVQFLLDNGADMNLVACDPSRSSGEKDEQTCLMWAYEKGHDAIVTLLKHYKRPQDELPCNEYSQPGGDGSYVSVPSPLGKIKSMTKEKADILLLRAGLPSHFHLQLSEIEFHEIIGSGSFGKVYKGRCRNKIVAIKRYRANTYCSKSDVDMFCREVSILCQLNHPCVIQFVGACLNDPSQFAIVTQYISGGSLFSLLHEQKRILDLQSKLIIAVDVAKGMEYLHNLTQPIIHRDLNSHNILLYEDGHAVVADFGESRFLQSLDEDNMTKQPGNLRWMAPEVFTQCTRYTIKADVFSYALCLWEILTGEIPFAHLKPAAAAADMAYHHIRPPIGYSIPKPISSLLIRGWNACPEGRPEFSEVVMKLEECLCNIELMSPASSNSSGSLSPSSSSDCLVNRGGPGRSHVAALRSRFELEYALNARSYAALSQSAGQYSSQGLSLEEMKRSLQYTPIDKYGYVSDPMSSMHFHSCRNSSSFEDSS
As to the kind of experiment: Inhibition of TNNI3K (unknown origin).

Test [3] addresses Mitogen-activated protein kinase 14 (Homo sapiens, UniProt Q16539). In words: Inhibition of p38alpha (unknown origin).
Test [4] is filed under the species Homo sapiens. As to the kind of experiment: Selectivity index, ratio of IC50 for inhibition of p38alpha (unknown origin) to IC50 for inhibition of TNNI3K (unknown origin).
Test [5] is filed under the species Homo sapiens. As to the kind of experiment: Selectivity index, ratio of IC50 for inhibition of VEGFR2 (unknown origin) to IC50 for inhibition of TNNI3K (unknown origin).
For test [6], the target named is Vascular endothelial growth factor receptor 2 (Homo sapiens, UniProt P35968). In words: Inhibition of GST-6His tagged VEGFR2 (unknown origin) using biotin-aminohexyl-EEEEYFELVAKKKK-NH2 peptide substrate incubated for 90 mins by HTRF assay.
Sequence of Vascular endothelial growth factor receptor 2 (P35968 whole entry): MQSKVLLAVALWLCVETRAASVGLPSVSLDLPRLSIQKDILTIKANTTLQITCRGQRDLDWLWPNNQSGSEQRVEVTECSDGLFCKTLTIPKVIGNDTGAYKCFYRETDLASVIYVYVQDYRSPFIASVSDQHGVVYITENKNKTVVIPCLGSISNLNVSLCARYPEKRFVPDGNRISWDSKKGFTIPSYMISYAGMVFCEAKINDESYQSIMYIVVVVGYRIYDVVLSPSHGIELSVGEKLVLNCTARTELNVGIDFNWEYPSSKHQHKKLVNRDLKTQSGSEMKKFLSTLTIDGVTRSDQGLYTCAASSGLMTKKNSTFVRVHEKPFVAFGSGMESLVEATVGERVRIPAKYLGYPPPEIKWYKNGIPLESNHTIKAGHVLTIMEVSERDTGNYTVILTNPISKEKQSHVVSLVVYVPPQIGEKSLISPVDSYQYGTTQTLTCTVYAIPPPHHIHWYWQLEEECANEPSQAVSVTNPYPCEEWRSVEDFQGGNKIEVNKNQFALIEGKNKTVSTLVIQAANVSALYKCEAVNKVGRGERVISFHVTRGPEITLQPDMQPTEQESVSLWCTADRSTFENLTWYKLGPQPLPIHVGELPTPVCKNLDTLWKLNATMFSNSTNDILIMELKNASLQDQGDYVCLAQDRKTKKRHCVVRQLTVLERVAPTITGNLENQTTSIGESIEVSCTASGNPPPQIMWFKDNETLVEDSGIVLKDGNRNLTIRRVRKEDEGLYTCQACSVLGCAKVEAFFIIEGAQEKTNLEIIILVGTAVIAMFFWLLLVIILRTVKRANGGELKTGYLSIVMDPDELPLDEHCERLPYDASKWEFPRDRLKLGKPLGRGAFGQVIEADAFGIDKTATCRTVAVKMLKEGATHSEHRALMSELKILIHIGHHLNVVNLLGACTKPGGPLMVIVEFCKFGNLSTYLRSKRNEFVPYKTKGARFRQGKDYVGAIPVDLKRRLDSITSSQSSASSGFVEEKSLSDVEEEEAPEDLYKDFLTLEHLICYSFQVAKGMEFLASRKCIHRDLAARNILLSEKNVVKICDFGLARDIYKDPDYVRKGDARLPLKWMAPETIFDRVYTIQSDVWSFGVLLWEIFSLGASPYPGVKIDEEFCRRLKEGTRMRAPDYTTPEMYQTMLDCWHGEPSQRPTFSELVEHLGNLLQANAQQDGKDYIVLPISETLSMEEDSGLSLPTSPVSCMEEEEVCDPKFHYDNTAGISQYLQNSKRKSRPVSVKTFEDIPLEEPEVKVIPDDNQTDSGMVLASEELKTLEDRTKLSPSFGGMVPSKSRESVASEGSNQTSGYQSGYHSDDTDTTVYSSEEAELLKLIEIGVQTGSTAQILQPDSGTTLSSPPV

Sequence of Serine/threonine-protein kinase B-raf (P15056 whole entry): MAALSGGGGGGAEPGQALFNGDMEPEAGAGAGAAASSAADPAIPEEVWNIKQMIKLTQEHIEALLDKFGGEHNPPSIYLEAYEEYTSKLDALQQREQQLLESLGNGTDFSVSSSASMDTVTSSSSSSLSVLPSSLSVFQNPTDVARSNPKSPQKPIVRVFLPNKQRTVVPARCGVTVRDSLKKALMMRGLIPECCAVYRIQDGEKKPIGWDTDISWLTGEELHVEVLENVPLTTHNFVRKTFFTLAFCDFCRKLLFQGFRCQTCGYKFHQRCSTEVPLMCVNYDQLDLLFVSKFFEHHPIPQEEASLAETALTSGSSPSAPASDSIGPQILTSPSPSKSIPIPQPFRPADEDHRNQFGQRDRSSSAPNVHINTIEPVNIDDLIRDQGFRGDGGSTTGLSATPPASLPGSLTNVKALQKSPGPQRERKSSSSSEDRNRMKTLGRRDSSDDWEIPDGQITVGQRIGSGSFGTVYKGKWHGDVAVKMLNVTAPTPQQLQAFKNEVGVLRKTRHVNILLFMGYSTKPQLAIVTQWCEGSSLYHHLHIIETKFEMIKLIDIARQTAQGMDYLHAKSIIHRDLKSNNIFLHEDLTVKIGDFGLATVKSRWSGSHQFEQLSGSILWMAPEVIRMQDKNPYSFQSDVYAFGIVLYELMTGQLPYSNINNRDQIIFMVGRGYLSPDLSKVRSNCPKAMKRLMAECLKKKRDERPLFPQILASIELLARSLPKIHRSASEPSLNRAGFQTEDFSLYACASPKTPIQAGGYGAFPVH
Sequence of Mitogen-activated protein kinase 14 (Q16539 whole entry): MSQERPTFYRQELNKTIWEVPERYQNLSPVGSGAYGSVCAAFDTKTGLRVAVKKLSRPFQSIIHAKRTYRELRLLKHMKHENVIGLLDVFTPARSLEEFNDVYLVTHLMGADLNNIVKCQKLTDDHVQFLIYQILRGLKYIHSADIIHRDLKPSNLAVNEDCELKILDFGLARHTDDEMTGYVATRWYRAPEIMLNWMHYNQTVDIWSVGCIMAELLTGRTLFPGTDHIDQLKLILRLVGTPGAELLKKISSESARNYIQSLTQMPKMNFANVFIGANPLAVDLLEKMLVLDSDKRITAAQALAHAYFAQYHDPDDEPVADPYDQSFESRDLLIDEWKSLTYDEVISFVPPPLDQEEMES

`CCc1cccc(NC(=O)Nc2ccc(Oc3cc(NC)ncn3)cc2)c1`: the IC50 in test [1] was more than 2000 nM; in test [2], 200 nM; in test [3] it was 16000 nM; in test [6], 130 nM. Also, the Ratio IC50 is 80 in test [4] and 0.65 in test [5].
As for `O=C(Nc1ccc(Oc2ncnc3[nH]ccc23)cc1)Nc1cccc(C(F)(F)F)c1`, the IC50 is 400 nM in test [1], 16 nM in test [2], 500 nM in test [3] and 2.5 nM in test [6]. Besides, the results for the Ratio IC50 in test [4] and in test [5] were 31 and 0.16, respectively.
For `CC(C)CNc1cc(Oc2ccc(NC(=O)Nc3cccc(C(F)(F)F)c3)cc2)ncn1`, the IC50 in test [1] amounted to 1260 nM; in test [2] it was 50 nM; in test [3] it was 250 nM; in test [6], 320 nM. For the same compound, the Ratio IC50 came out at 5 in test [4] and 6.4 in test [5].
On to `CNc1cc(Oc2ccc(NC(=O)Nc3cccc(C(F)(F)F)c3)cc2Cl)ncn1`, for which the IC50 was 500 nM in test [1], 50 nM in test [2], 800 nM in test [3] and 50 nM in test [6]. For the same compound, the values for the Ratio IC50 in test [4] and in test [5] were 16 and 1, respectively.
Regarding `O=C(O)Cc1cccc(Nc2cc(Oc3ccc(NC(=O)Nc4cccc(C(F)(F)F)c4)cc3)ncn2)c1`, the IC50 in test [1] is 630 nM; in test [2], 10 nM; in test [3], 400 nM; in test [6], 0.4 nM. Moreover, the Ratio IC50 in test [4] is 40; in test [5], 0.04.
As to `CNc1cc(Oc2ccc(NC(=O)Nc3cccc(C(F)(F)F)c3)cc2C)ncn1`, the IC50 in test [1] was 160 nM; in test [2], not above 10 nM; in test [3], 630 nM; in test [6], 63 nM. The Ratio IC50 in test [4] is more than 63; in test [5], more than 6.3.
For `CNC(=O)c1cc(Oc2ccc(NC(=O)Nc3cccc(C(F)(F)F)c3)cc2)ccn1`, the IC50 in test [2] worked out at 79 nM; in test [3] it was 320 nM; in test [6], 4 nM. Further, the Ratio IC50 turned out to be 4 in test [4] and 0.05 in test [5].
As for `C[C@@H](O)CNc1cc(Oc2ccc(NC(=O)Nc3cccc(C(F)(F)F)c3)cc2)ncn1`, the IC50 in test [1] is 1000 nM; in test [2], 63 nM; in test [3] it was 500 nM; in test [6] it was 200 nM. Further, the results for the Ratio IC50 in test [4] and in test [5] were 8 and 3.2, respectively.
Consider `CCCNc1cc(Oc2ccc(NC(=O)Nc3cccc(C(F)(F)F)c3)cc2)ncn1`, for which the IC50 was 630 nM in test [1], 32 nM in test [2], 400 nM in test [3] and 19 nM in test [6]. Also, the Ratio IC50 in test [4] was found to be 13.
Take `CNc1nccc(Oc2ccc(NC(=O)Nc3cccc(C(F)(F)F)c3)cc2)n1`: the IC50 in test [1] worked out at 63 nM; in test [2], 50 nM; in test [3] it was 50 nM; in test [6], 32 nM. In addition, the results for the Ratio IC50 in test [4] and in test [5] were 1 and 0.64, respectively.
For `CNc1cc(Oc2cc(C)c(NC(=O)Nc3cccc(C(F)(F)F)c3)cc2C)ncn1`, the IC50 is more than 2000 nM in test [1], 32 nM in test [2], 5000 nM in test [3] and 2000 nM in test [6]. The Ratio IC50 in test [4] worked out at 160; in test [5], 63.
For `CC(C)Nc1cc(Oc2ccc(NC(=O)Nc3cccc(C(F)(F)F)c3)cc2)ncn1`, the IC50 was 800 nM in test [1], 40 nM in test [2], 400 nM in test [3] and 50 nM in test [6]. Moreover, the Ratio IC50 in test [4] worked out at 10; in test [5] it was 1.3.
Consider `CNc1cc(Oc2ccc(NC(=O)Nc3cccc(C(F)(F)F)c3)c(F)c2F)ncn1`, for which the IC50 in test [1] amounted to 16 nM; in test [2] it was 20 nM; in test [3] it was 160 nM; in test [6], 2.5 nM. Further, the Ratio IC50 amounted to 8 in test [4] and 0.13 in test [5].
`CNc1cc(Oc2ccc(NC(=O)Nc3cccc(C(F)(F)F)c3)c3ccccc23)ncn1`: the half-inhibitory concentration (IC50) in test [1] was found to be 100 nM; in test [2] it was 25 nM; in test [3] it was 5 nM; in test [6], 13 nM. In addition, the Ratio IC50 in test [4] came to 0.2; in test [5], 0.5.
As for `CNc1cc(Oc2ccc(NC(=O)Nc3cccc(C(C)(F)F)c3)cc2)ncn1`, the IC50 in test [1] was determined as 500 nM; in test [2] it was 40 nM; in test [3] it was 1000 nM; in test [6], 40 nM. The results for the Ratio IC50 in test [4] and in test [5] were 25 and 1, respectively.
With `CNc1cc(Oc2ccc(NC(=O)Nc3cccc(C(F)(F)F)c3)cc2F)ncn1`, the IC50 in test [1] came out at 1600 nM; in test [3], 1000 nM; in test [6], 16 nM. Besides, the Ratio IC50 in test [4] worked out at 40; in test [5] it was 0.64.
As to `CNc1cc(Oc2ccc(NC(=O)Nc3cccc(C)c3)cc2)ncn1`, the IC50 in test [1] was more than 2000 nM; in test [2], 1260 nM; in test [3], more than 25000 nM; in test [6], 800 nM. Also, the values for the Ratio IC50 in test [4] and in test [5] were more than 20 and 0.63, respectively.
With `COc1cc(Oc2ccc(NC(=O)Nc3cccc(C(F)(F)F)c3)cc2)ncn1`, the IC50 in test [1] is more than 2000 nM; in test [2] it was 4000 nM; in test [3], 1260 nM; in test [6], 400 nM. The Ratio IC50 in test [4] stood at 0.3; in test [5], 0.1.
Consider `CNc1cc(Oc2c(C)cc(NC(=O)Nc3cccc(C(F)(F)F)c3)c3ccccc23)ncn1`, for which the IC50 in test [1] was more than 2000 nM; in test [2], 32 nM; in test [3] it was 130 nM; in test [6], 160 nM. In addition, the Ratio IC50 in test [4] stood at 4; in test [5] it was 5.
With `CNc1cc(Oc2ccc(NC(=O)Nc3cccc(C(C)(C)C)c3)cc2)ncn1`, the IC50 in test [1] was 400 nM; in test [2], 40 nM; in test [3], 1000 nM; in test [6], 25 nM. Further, the Ratio IC50 in test [4] amounted to 25; in test [5], 0.63.
Regarding `Cc1cc(Oc2ccc(NC(=O)Nc3cccc(C(F)(F)F)c3)cc2)ncn1`, the IC50 in test [1] amounted to 1260 nM; in test [2], 160 nM; in test [3] it was 1000 nM; in test [6], 63 nM. Besides, the Ratio IC50 in test [4] is 6.3; in test [5] it was 0.4.
As to `C[C@H](O)CNc1cc(Oc2ccc(NC(=O)Nc3cccc(C(F)(F)F)c3)cc2)ncn1`, the IC50 in test [1] amounted to 800 nM; in test [2], 32 nM; in test [3], 320 nM; in test [6], 320 nM. Besides, the Ratio IC50 in test [4] and in test [5] was 10 each time.
With `O=C(Nc1ccc(Oc2ccncn2)cc1)Nc1cccc(C(F)(F)F)c1`, the IC50 in test [1] worked out at 1000 nM; in test [2] it was 160 nM; in test [3], 630 nM; in test [6] it was 50 nM. Also, the Ratio IC50 was 3.9 in test [4] and 0.3 in test [5].
Regarding `CCNc1cc(Oc2ccc(NC(=O)Nc3cccc(C(F)(F)F)c3)cc2)ncn1`, the IC50 in test [1] stood at 500 nM; in test [2], 25 nM; in test [3] it was 320 nM; in test [6] it was 16 nM. Also, the values for the Ratio IC50 in test [4] and in test [5] were 13 and 0.64, respectively.
With `CNc1cc(Oc2ccc(NC(=O)Nc3cccc(C(F)F)c3)cc2)ncn1`, the IC50 was more than 2000 nM in test [1], 100 nM in test [2], 6300 nM in test [3] and 130 nM in test [6]. For the same compound, the Ratio IC50 in test [4] amounted to 62; in test [5], 1.3.
As to `CNc1cc(Oc2c(F)cc(NC(=O)Nc3cccc(C(F)(F)F)c3)cc2F)ncn1`, the IC50 in test [1] was more than 2000 nM; in test [2] it was 20 nM; in test [3], 500 nM; in test [6] it was 50 nM. Also, the Ratio IC50 in test [4] was determined as 25; in test [5], 2.5.
With `CC(=O)Nc1cc(Oc2ccc(NC(=O)Nc3cccc(C(F)(F)F)c3)cc2)ncn1`, the IC50 in test [1] is 32 nM; in test [2], 20 nM; in test [3], 79 nM; in test [6], 1.3 nM. In addition, the Ratio IC50 in test [4] stood at 4; in test [5], 0.07.
Consider `Cc1cc(Oc2ccc(NC(=O)Nc3cccc(C(F)(F)F)c3)cc2)c2ccccc2n1`, for which the IC50 was 1260 nM in test [1], more than 50000 nM in test [2], 1000 nM in test [3] and more than 10000 nM in test [6]. For the same compound, the Ratio IC50 in test [4] is less than 0.02.
